Consider 26 compounds from patent publication US20080114007A1 (priority 2006, published 2008).

In general, IC50 refers to the concentration at which inhibition is half-maximal.

The structures appear in SMILES notation. Read-outs that look alike come from different tables or passages of the source.

For the assay, the target named is CSF-1R (Homo sapiens, UniProt P07333). Put plainly: Peptide (non-phosphorylated) assay, fluorescence polarization competition immunoassay. The class given is biochemical. The settings on record: 308 μM SYEGNSYTFIDPTQ peptide, 1 mM ATP, 80 min, mean of at least three determinations. The method, boiled down:
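Read-out is fluorescence polarization: after EDTA quench, anti-phosphotyrosine antibody plus PTK green tracer compete with the phosphorylated peptide for 30 min. The CSF-1R reaction itself ran 80 min at room temperature after ATP addition. DMSO (4%) wells served as controls, positive controls pre-treated with EDTA.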
A general note: Polarisation of emitted light reports the rotation of a fluorescent probe.

[1] abbreviates: 0.7 nM CSF-1R, read-out: c-fms Peptide IC50.
Where [2] appears, read: c-fms Peptide IC50, 0.7 nM CSF-1R.

Chain of CSF-1R (P07333 20-972): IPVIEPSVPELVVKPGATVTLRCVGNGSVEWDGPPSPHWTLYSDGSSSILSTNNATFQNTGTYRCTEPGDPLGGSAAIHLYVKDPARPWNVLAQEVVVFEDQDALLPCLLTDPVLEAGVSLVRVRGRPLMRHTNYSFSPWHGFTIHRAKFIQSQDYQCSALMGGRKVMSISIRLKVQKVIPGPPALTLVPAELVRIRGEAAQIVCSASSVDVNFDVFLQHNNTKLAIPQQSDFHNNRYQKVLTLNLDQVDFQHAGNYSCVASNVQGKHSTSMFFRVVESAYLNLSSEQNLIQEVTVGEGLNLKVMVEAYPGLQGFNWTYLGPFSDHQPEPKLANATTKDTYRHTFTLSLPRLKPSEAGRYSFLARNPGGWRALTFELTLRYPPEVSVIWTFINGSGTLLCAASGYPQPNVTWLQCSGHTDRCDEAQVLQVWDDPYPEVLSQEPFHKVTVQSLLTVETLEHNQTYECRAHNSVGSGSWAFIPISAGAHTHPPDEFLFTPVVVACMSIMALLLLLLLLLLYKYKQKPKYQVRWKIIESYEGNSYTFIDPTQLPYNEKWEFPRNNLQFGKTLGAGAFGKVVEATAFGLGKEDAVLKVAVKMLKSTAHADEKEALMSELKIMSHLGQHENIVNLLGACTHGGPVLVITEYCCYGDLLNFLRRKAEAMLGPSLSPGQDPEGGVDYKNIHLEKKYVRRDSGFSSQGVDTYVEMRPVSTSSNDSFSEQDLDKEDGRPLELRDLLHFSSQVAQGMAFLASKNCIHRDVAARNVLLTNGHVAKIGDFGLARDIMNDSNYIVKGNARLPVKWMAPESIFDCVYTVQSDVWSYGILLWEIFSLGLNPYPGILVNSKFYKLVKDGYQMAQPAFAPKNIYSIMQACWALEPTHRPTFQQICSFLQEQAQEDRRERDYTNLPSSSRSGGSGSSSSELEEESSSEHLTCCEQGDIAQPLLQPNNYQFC

For `CONC(=O)c1cn(-c2ccc3c(c2)CCC3)c2nc(Nc3ccc(C4CCN(CCS(C)(=O)=O)CC4)cc3)ncc2c1=O` [Cpd 78, 8-indan-5-yl-2-{4-[1-(2-methanesulfonyl-ethyl)-piperidin-4-yl]-phenylamino}-5-oxo-5,8-dihydro-pyrido[2,3-d]pyrimidine-6-carboxylic acid methoxy-amide], the IC50 under setting [1] stood at 0.72 nM.

On to `CONC(=O)c1cn(-c2ccc3c(c2)CCC3)c2nc(Nc3ccc(CCO)cc3)ncc2c1=O` [Cpd 79, 2-[4-(2-hydroxy-ethyl)-phenylamino]-8-indan-5-yl-5-oxo-5,8-dihydro-pyrido[2,3-d]pyrimidine-6-carboxylic acid methoxy-amide], for which the IC50 under setting [1] turned out to be 0.87 nM.

Compound `CONC(=O)c1cn(-c2ccc3c(c2)CCC3)c2nc(Nc3ccc(CCN4CCOCC4)cc3)ncc2c1=O` [Cpd 80, 8-indan-5-yl-2-[4-(2-morpholin-4-yl-ethyl)-phenylamino]-5-oxo-5,8-dihydro-pyrido[2,3-d]pyrimidine-6-carboxylic acid methoxy-amide] displayed a half-maximal inhibitory concentration (IC50) under setting [2] of 1.3 nM.

As for `COCCc1ccc(Nc2ncc3c(=O)c(C(=O)NOC)cn(-c4ccc5c(c4)CCC5)c3n2)cc1` [Cpd 81, 8-indan-5-yl-2-[4-(2-methoxy-ethyl)-phenylamino]-5-oxo-5,8-dihydro-pyrido[2,3-d]pyrimidine-6-carboxylic acid methoxy-amide], under setting [1], the IC50 was 3 nM.

`CONC(=O)c1cn(-c2ccc3c(c2)CCC3)c2nc(Nc3ccc(CCNS(C)(=O)=O)cc3)ncc2c1=O` [Cpd 82, 8-indan-5-yl-2-[4-(2-methanesulfonylamino-ethyl)-phenylamino]-5-oxo-5,8-dihydro-pyrido[2,3-d]pyrimidine-6-carboxylic acid methoxy-amide]: the IC50 under setting [1] was 3.6 nM.

As for `CONC(=O)c1cn(-c2ccc3c(c2)CCC3)c2nc(Nc3ccc(CCN4CCC(=O)CC4)cc3)ncc2c1=O` [Cpd 83, 8-indan-5-yl-5-oxo-2-{4-[2-(4-oxo-piperidin-1-yl)-ethyl]-phenylamino}-5,8-dihydro-pyrido[2,3-d]pyrimidine-6-carboxylic acid methoxy-amide], under setting [1], the IC50 turned out to be 1 nM.

Consider `CONC(=O)c1cn(-c2ccc3c(c2)CCC3)c2nc(Nc3ccc(C4CCN(CCC(=O)O)CC4)cc3)ncc2c1=O` [Cpd 84, 3-{4-[4-(8-indan-5-yl-6-methoxycarbamoyl-5-oxo-5,8-dihydro-pyrido[2,3-d]pyrimidin-2-ylamino)-phenyl]-piperidin-1-yl}-propionic acid], for which the 50% inhibitory concentration (IC50) under setting [1] stood at 2 nM.

Turning to `CONC(=O)c1cn(-c2ccc3c(c2)CCC3)c2nc(Nc3ccc(C4CCN(CC(=O)O)CC4)cc3)ncc2c1=O` [Cpd 85, {4-[4-(8-indan-5-yl-6-methoxycarbamoyl-5-oxo-5,8-dihydro-pyrido[2,3-d]pyrimidin-2-ylamino)-phenyl]-piperidin-1-yl}-acetic acid], the IC50 under setting [1] came to 2.2 nM.

Take `CCOC(=O)CN1CCC(c2ccc(Nc3ncc4c(=O)c(C(=O)NOC)cn(-c5ccc6c(c5)CCC6)c4n3)cc2)CC1` [Cpd 86, {4-[4-(8-indan-5-yl-6-methoxycarbamoyl-5-oxo-5,8-dihydro-pyrido[2,3-d]pyrimidin-2-ylamino)-phenyl]-piperidin-1-yl}-acetic acid ethyl ester]: under setting [1], the IC50 was 1.8 nM.

Turning to `CONC(=O)c1cn(-c2ccc3c(c2)CCC3)c2nc(Nc3ccc(C4CCN(CC(=O)NS(C)(=O)=O)CC4)cc3)ncc2c1=O` [Cpd 87, 8-indan-5-yl-2-{4-[1-(2-methanesulfonylamino-2-oxo-ethyl)-piperidin-4-yl]-phenylamino}-5-oxo-5,8-dihydro-pyrido[2,3-d]pyrimidine-6-carboxylic acid methoxy-amide], under setting [1], the concentration for half-maximal inhibition (IC50) is 2.4 nM.

Consider `CONC(=O)c1cn(-c2ccc3c(c2)CCC3)c2nc(Nc3ccc(C4CCN(CCO)CC4)cc3)ncc2c1=O` [Cpd 88, 2-{4-[1-(2-hydroxy-ethyl)-piperidin-4-yl]-phenylamino}-8-indan-5-yl-5-oxo-5,8-dihydro-pyrido[2,3-d]pyrimidine-6-carboxylic acid methoxy-amide], for which the IC50 under setting [1] amounted to 1.3 nM.

On to `CNS(=O)(=O)CCc1ccc(Nc2ncc3c(=O)c(C(=O)NOC)cn(-c4ccc5c(c4)CCC5)c3n2)cc1` [Cpd 89, 8-indan-5-yl-2-[4-(2-methylsulfamoyl-ethyl)-phenylamino]-5-oxo-5,8-dihydro-pyrido[2,3-d]pyrimidine-6-carboxylic acid methoxy-amide], for which the IC50 under setting [1] was determined as 1.4 nM.

In the case of `CONC(=O)c1cn(-c2ccc3c(c2)CCC3)c2nc(Nc3ccc(CCS(=O)(=O)NC(C)=O)cc3)ncc2c1=O` [Cpd 90, 2-[4-(2-acetylsulfamoyl-ethyl)-phenylamino]-8-indan-5-yl-5-oxo-5,8-dihydro-pyrido[2,3-d]pyrimidine-6-carboxylic acid methoxy-amide], the IC50 under setting [2] was determined as 2.4 nM.

As for `CONC(=O)c1cn(-c2ccc3c(c2)CCC3)c2nc(Nc3ccc(Cc4nnn[nH]4)cc3)ncc2c1=O` [Cpd 91, 8-indan-5-yl-5-oxo-2-[4-(1H-tetrazol-5-ylmethyl)-phenylamino]-5,8-dihydro-pyrido[2,3-d]pyrimidine-6-carboxylic acid methoxy-amide], the IC50 under setting [1] was 2 nM.

In the case of `CCc1ccc(-n2cc(C(=O)NOC3CCCC3)c(=O)c3cnc(Nc4ccc(CCN5CCN(C)CC5)cc4)nc32)cc1` [Cpd 92, 8-(4-ethyl-phenyl)-2-{4-[2-(4-methyl-piperazin-1-yl)-ethyl]-phenylamino}-5-oxo-5,8-dihydro-pyrido[2,3-d]pyrimidine-6-carboxylic acid cyclopentyloxy-amide], under setting [1], the concentration for half-maximal inhibition (IC50) came out at 4.9 nM.

Consider `CCc1ccc(-n2cc(C(=O)NOC(CC)CC)c(=O)c3cnc(Nc4ccc(CCN5CCN(C)CC5)cc4)nc32)cc1` [Cpd 93, 8-(4-ethyl-phenyl)-2-{4-[2-(4-methyl-piperazin-1-yl)-ethyl]-phenylamino}-5-oxo-5,8-dihydro-pyrido[2,3-d]pyrimidine-6-carboxylic acid (1-ethyl-propoxy)-amide], for which, under setting [1], the IC50 is 4.9 nM.

For the compound `CCc1ccc(-n2cc(C(=O)NOC)c(=O)c3cnc(Nc4ccc(C5CCN(CC(=O)O)CC5)cc4)nc32)cc1` [Cpd 94, (4-{4-[8-(4-ethyl-phenyl)-6-methoxycarbamoyl-5-oxo-5,8-dihydro-pyrido[2,3-d]pyrimidin-2-ylamino]-phenyl}-piperidin-1-yl)-acetic acid], the IC50 under setting [1] came out at 0.9 nM.

As to `CCc1ccc(-n2cc(C(=O)NOC)c(=O)c3cnc(Nc4ccc(C5CCN(CCO)CC5)cc4)nc32)cc1` [Cpd 95, 8-(4-ethyl-phenyl)-2-{4-[1-(2-hydroxy-ethyl)-piperidin-4-yl]-phenylamino}-5-oxo-5,8-dihydro-pyrido[2,3-d]pyrimidine-6-carboxylic acid methoxy-amide], the half-maximal inhibitory concentration (IC50) under setting [1] was found to be 1.8 nM.

Turning to `CCc1ccc(-n2cc(C(=O)NOC)c(=O)c3cnc(Nc4ccc(C5CCN(CCS(C)(=O)=O)CC5)cc4)nc32)cc1` [Cpd 96, 8-(4-ethyl-phenyl)-2-{4-[1-(2-methanesulfonyl-ethyl)-piperidin-4-yl]-phenylamino}-5-oxo-5,8-dihydro-pyrido[2,3-d]pyrimidine-6-carboxylic acid methoxy-amide], under setting [1], the IC50 stood at 0.9 nM.

On to `CONC(=O)c1cn(-c2ccc3c(c2)CCC3)c2nc(Nc3ccc(CCNCCO)cc3)ncc2c1=O` [Cpd 97, 2-{4-[2-(2-hydroxy-ethylamino)-ethyl]-phenylamino}-8-indan-5-yl-5-oxo-5,8-dihydro-pyrido[2,3-d]pyrimidine-6-carboxylic acid methoxy-amide], for which, under setting [1], the 50% inhibitory concentration (IC50) is 0.63 nM.

For the compound `COCCNCCc1ccc(Nc2ncc3c(=O)c(C(=O)NOC)cn(-c4ccc5c(c4)CCC5)c3n2)cc1` [Cpd 98, 8-indan-5-yl-2-{4-[2-(2-methoxy-ethylamino)-ethyl]-phenylamino}-5-oxo-5,8-dihydro-pyrido[2,3-d]pyrimidine-6-carboxylic acid methoxy-amide], under setting [1], the IC50 amounted to 1.4 nM.

Regarding `CONC(=O)c1cn(-c2ccc3c(c2)CCC3)c2nc(Nc3ccc(CCNCCS(C)(=O)=O)cc3)ncc2c1=O` [Cpd 99, 8-indan-5-yl-2-{4-[2-(2-methanesulfonyl-ethylamino)-ethyl]-phenylamino}-5-oxo-5,8-dihydro-pyrido[2,3-d]pyrimidine-6-carboxylic acid methoxy-amide], the IC50 under setting [1] was determined as 0.9 nM.

As to `CONC(=O)c1cn(-c2ccc3c(c2)CCC3)c2nc(Nc3ccc(CCN(CCO)CCO)cc3)ncc2c1=O` [Cpd 100, 2-(4-{2-[bis-(2-hydroxy-ethyl)-amino]-ethyl}-phenylamino)-8-indan-5-yl-5-oxo-5,8-dihydro-pyrido[2,3-d]pyrimidine-6-carboxylic acid methoxy-amide], under setting [1], the half-maximal inhibitory concentration (IC50) came to 0.64 nM.

For the compound `CONC(=O)c1cn(-c2ccc3c(c2)CCC3)c2nc(Nc3ccc(CCN4CCC[C@@H]4CO)cc3)ncc2c1=O` [Cpd 101, (R)-2-{4-[2-(2-hydroxymethyl-pyrrolidin-1-yl)-ethyl]-phenylamino}-8-indan-5-yl-5-oxo-5,8-dihydro-pyrido[2,3-d]pyrimidine-6-carboxylic acid methoxy-amide], the half-maximal inhibitory concentration (IC50) under setting [1] came out at 0.55 nM.

Take `CONC(=O)c1cn(-c2ccc3c(c2)CCC3)c2nc(Nc3ccc(CC(=O)NN4CCCCC4)cc3)ncc2c1=O` [Cpd 102, 8-indan-5-yl-5-oxo-2-[4-(piperidin-1-ylcarbamoylmethyl)-phenylamino]-5,8-dihydro-pyrido[2,3-d]pyrimidine-6-carboxylic acid methoxy-amide]: under setting [1], the IC50 was 2.3 nM.

For the compound `CCc1ccc(-n2cc(C(=O)NOC)c(=O)c3cnc(Nc4ccc(CC(=O)O)cc4)nc32)cc1` [Cpd 103, {4-[8-(4-ethyl-phenyl)-6-methoxycarbamoyl-5-oxo-5,8-dihydro-pyrido[2,3-d]pyrimidin-2-ylamino]-phenyl}-acetic acid], the IC50 under setting [1] was found to be 7.2 nM.
